Results: patent US20260015350A1, “AZAQUINAZOLINE PAN-KRAS INHIBITORS” (Mirati Therapeutics, Inc., priority 2022, published 2026)

Columns and labels:
KRas^G12D = biological target: T1, KRas^G12D (Homo sapiens, UniProt P01116, G12D); experiment: KRas binding assay (TR-FRET tracer displacement), KRas G12D
T1 construct: Biotinylated KRas (corresponding to amino acids 1-169, produced at Accelegan Inc.); biotin (biotinylated); purchased Accelegan Inc

KRas^G12R = biological target: T2, KRas^G12R (Homo sapiens, UniProt P01116, G12R); experiment: KRas binding assay (TR-FRET tracer displacement), KRas G12R
T2 construct: Biotinylated KRas (corresponding to amino acids 1-169, produced at Accelegan Inc.); biotin (biotinylated); purchased Accelegan Inc

KRas^G12V = biological target: T3, KRas^G12V (Homo sapiens, UniProt P01116, G12V); experiment: KRas binding assay (TR-FRET tracer displacement), KRas G12V
T3 construct: Biotinylated KRas (corresponding to amino acids 1-169, produced at Accelegan Inc.); biotin (biotinylated); purchased Accelegan Inc

[1] = system: KRas-mediated phosphorylation of ERK in AsPC-1 cells; experiment: Inhibition of KRas-mediated phosphorylation of ERK (Cisbio HTRF pERK), AsPC-1 cells; assay type: cell-based; settings: Homo sapiens, ASPC1, AsPC-1 cells; HTRF pERK
In short: (§1)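 Cells were seeded at 6,000 per well and treated for 3 hrs with compound in a 10-dose, 3-fold series from 10 uM (0.8% final DMSO), with 0.2 uM Trametinib as Min control. Lysates made at 4° C over 40 mins were incubated 2 hrs at room temperature with d2- and Cryptate-labelled antibodies, then read by HTRF.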

[2] = system: KRas-mediated phosphorylation of ERK in H727 cells; experiment: Inhibition of KRas-mediated phosphorylation of ERK (Cisbio HTRF pERK), H727 cells; assay type: cell-based; settings: Homo sapiens, NCI-H727, H727 cells; HTRF pERK
In short: as §1

T3 sequence (P01116 1-169 isoform P01116-2 G12V): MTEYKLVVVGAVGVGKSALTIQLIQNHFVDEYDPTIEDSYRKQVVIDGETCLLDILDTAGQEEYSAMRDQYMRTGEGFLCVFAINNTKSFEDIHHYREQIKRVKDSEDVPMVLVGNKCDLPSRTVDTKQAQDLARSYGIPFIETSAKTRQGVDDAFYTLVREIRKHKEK
T2 sequence (P01116 1-169 isoform P01116-2 G12R): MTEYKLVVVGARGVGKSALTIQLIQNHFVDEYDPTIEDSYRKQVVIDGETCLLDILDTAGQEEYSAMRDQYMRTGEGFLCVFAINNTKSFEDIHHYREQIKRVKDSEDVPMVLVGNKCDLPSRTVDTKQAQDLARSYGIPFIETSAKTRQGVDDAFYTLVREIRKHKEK
T1 sequence (P01116 1-169 isoform P01116-2 G12D): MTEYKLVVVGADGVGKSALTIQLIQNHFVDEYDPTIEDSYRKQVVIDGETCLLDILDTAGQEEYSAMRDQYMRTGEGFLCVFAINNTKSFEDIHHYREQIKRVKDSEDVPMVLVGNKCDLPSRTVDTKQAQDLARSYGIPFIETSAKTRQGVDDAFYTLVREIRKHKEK

| Compound | IC50 (KRas^G12D) [nM] | IC50 (KRas^G12R) [nM] | IC50 (KRas^G12V) [nM] | IC50 [1] [nM] | IC50 [2] [nM] |
| --- | --- | --- | --- | --- | --- |
| CCc1c(F)ccc2cc(O)cc(-c3ncc4c(N5CCN6C[C@@H](O)C[C@H]6C5)nc(OC[C@@]56CCCN5C[C@H](F)C6)nc4c3F)c12 [Example 567, (7S,8aS)-2-(7-(8-ethyl-7-fluoro-3-hydroxynaphthalen-1-yl)-8-fluoro-2-(((2R,7aS)-2-fluorohexahydro-1H-pyrrolizin-7a-yl)methoxy)pyrido[4,3-d]pyrimidin-4-yl) octahydropyrrolo[1,2-a]pyrazin-7-ol] | 682 | 1460 | 2430 | > 10000 | > 10000 |
| CCc1c(F)ccc2cc(O)cc(-c3ncc4c(N5CCC[C@@](C)(O)C5)nc(OCC56CC5CCCN(C)C6)nc4c3F)c12 (stereo partly drawn) [Example 828, (3R)-1-(7-(8-ethyl-7-fluoro-3-hydroxynaphthalen-1-yl)-8-fluoro-2-((3-methyl-3-azabicyclo[5.1.0]octan-1-yl)methoxy)pyrido[4,3-d]pyrimidin-4-yl)-3-methylpiperidin-3-ol] | 11400 | 21400 | 12700 | > 10000 | > 10000 |
| CCc1c(F)ccc2cc(O)cc(-c3ncc4c(NCc5cc(C(=O)N(C)C)n(CCC#N)n5)nc(OC[C@@]56CCCN5C[C@H](F)C6)nc4c3F)c12 [Example 668, 1-(2-cyanoethyl)-3-(((7-(8-ethyl-7-fluoro-3-hydroxynaphthalen-1-yl)-8-fluoro-2-(((2R,7aS)-2-fluorohexahydro-1H-pyrrolizin-7a-yl)methoxy)pyrido[4,3-d]pyrimidin-4-yl)amino)methyl)-N,N-dimethyl-1H-pyrazole-5-carboxamide] | 34 | 16 | 12 | > 10000 | > 10000 |
| CN(C)C(=O)n1cc(CNc2nc(OC[C@@]34CCCN3C[C@H](F)C4)nc3c(F)c(-c4cc(O)cc5ccc(F)c(Cl)c45)ncc23)c(NC(=O)[C@H]2C[C@H](O)C2)n1 [Example 775, 4-(((7-(8-chloro-7-fluoro-3-hydroxynaphthalen-1-yl)-8-fluoro-2-(((2R,7aS)-2-fluorohexahydro-1H-pyrrolizin-7a-yl)methoxy)pyrido[4,3-d]pyrimidin-4-yl)amino)methyl)-3-((1r,3S)-3-hydroxycyclobutanecarboxamido)-N,N-dimethyl-1H-pyrazole-1-carboxamide] | 23 | 3 | 4 | > 10000 | > 10000 |
| CCc1c(F)ccc2cc(O)cc(-c3ncc4c(N5CCC(n6cnnc6)C5)nc(OC[C@@]56CCCN5C[C@H](F)C6)nc4c3F)c12 (stereo partly drawn) [Example 564, 4-(4-(3-(4H-1,2,4-triazol-4-yl)pyrrolidin-1-yl)-8-fluoro-2-(((2R,7aS)-2-fluorotetrahydro-1H-pyrrolizin-7a(5H)-yl)methoxy)pyrido[4,3-d]pyrimidin-7-yl)-5-ethyl-6-fluoronaphthalen-2-ol] | 640 | 31 | 16 | > 10000 | > 10000 |
| CCc1c(F)ccc2cc(O)cc(-c3ncc4c(N5C[C@@H]6[C@@H](CC(N)=O)NC(=O)[C@@H]6C5)nc(OC[C@@]56CCCN5C[C@H](F)C6)nc4c3F)c12 [Example 641, 2-((1R,3aS,6aR)-5-(7-(8-ethyl-7-fluoro-3-hydroxynaphthalen-1-yl)-8-fluoro-2-(((2R,7aS)-2-fluorotetrahydro-1H-pyrrolizin-7a(5H)-yl)methoxy)pyrido[4,3-d]pyrimidin-4-yl)-3-oxooctahydropyrrolo[3,4-c]pyrrol-1-yl)acetamide] | 3120 | 540 | 632 | > 10000 | > 10000 |
| CCc1c(F)ccc2cc(O)cc(-c3ncc4c(NCc5cc(C(=O)N(C)C)nn5C5CS(=O)(=O)C5)nc(OC[C@@]56CCCN5C[C@H](F)C6)nc4c3F)c12 [Example 691, 1-(1,1-dioxidothietan-3-yl)-5-(((7-(8-ethyl-7-fluoro-3-hydroxynaphthalen-1-yl)-8-fluoro-2-(((2R,7aS)-2-fluorohexahydro-1H-pyrrolizin-7a-yl)methoxy)pyrido[4,3-d]pyrimidin-4-yl)amino)methyl)-N,N-dimethyl-1H-pyrazole-3-carboxamide] | 5 | 6 | 2 | > 10000 | > 10000 |
| CCc1c(F)ccc2cc(O)cc(-c3ncc4c(N5CC6(CO)CC(C7CCCC7)(C5)C6)nc(OC[C@@]56CCCN5C[C@H](F)C6)nc4c3F)c12 [Example 648, 4-(4-(1-cyclopentyl-5-(hydroxymethyl)-3-azabicyclo[3.1.1]heptan-3-yl)-8-fluoro-2-(((2R,7aS)-2-fluorohexahydro-1H-pyrrolizin-7a-yl)methoxy)pyrido[4,3-d]pyrimidin-7-yl)-5-ethyl-6-fluoronaphthalen-2-ol] | 9120 | 7370 | 6080 | > 10000 | > 10000 |
| CCc1c(F)ccc2cc(O)cc(-c3ncc4c(NCc5cc(C(=O)N(C)C)n([C@H]6C[C@@H](O)C6)n5)nc(OC[C@@]56CCCN5C[C@H](F)C6)nc4c3F)c12 [Example 681, 3-(((7-(8-ethyl-7-fluoro-3-hydroxynaphthalen-1-yl)-8-fluoro-2-(((2R,7aS)-2-fluorohexahydro-1H-pyrrolizin-7a-yl)methoxy)pyrido[4,3-d]pyrimidin-4-yl)amino)methyl)-1-(cis-3-hydroxycyclobutyl)-N,N-dimethyl-1H-pyrazole-5-carboxamide] | 497 | 167 | 51 | > 10000 | > 10000 |
| CCc1c(F)ccc2cc(O)cc(-c3ncc4c(N5C[C@H]6CC[C@@]6(O)C5)nc(OC[C@@]56CCCN5C[C@H](F)C6)nc4c3F)c12 [Example 546, (1S,5R)-3-(7-(8-ethyl-7-fluoro-3-hydroxynaphthalen-1-yl)-8-fluoro-2-(((2R,7aS)-2-fluorohexahydro-1H-pyrrolizin-7a-yl)methoxy)pyrido[4,3-d]pyrimidin-4-yl)-3-azabicyclo[3.2.0]heptan-1-ol] | 72 | 37 | 35 | 1830 | 1010 |
| CCc1c(F)ccc2cc(O)cc(-c3ncc4c(N5CCCn6nc(C(=O)N(C)CCO)cc6C5)nc(OC[C@@]56CCCN5C[C@H](F)C6)nc4c3F)c12 [Example 679, 5-(7-(8-ethyl-7-fluoro-3-hydroxynaphthalen-1-yl)-8-fluoro-2-(((2R,7aS)-2-fluorohexahydro-1H-pyrrolizin-7a-yl)methoxy)pyrido[4,3-d]pyrimidin-4-yl)-N-(2-hydroxyethyl)-N-methyl-5,6,7,8-tetrahydro-4H-pyrazolo[1,5-a][1,4]diazepine-2-carboxamide] | 124 | 190 | 105 | > 10000 | 9490 |
| CCc1c(F)ccc2cc(O)cc(-c3ncc4c(N5CC6CN(C7COC7)CC6C5)nc(OC[C@@]56CCCN5C[C@H](F)C6)nc4c3F)c12 (stereo partly drawn) [Example 621, 5-ethyl-6-fluoro-4-(8-fluoro-2-(((2R,7aS)-2-fluorohexahydro-1H-pyrrolizin-7a-yl)methoxy)-4-(5-(oxetan-3-yl)hexahydropyrrolo[3,4-c]pyrrol-2(1H)-yl)pyrido[4,3-d]pyrimidin-7-yl)naphthalen-2-ol] | 891 | 3490 | 1290 | > 10000 | > 10000 |
